Measured values from PubChem BioAssay AID540268 (Broad Institute, 2011).
Values joined by “and” are separate entries in the source; they are usually repeats but may differ in a detail not shown here. Equal entries are not always repeated. Active and inactive are the calls of the source. How the calls were made is not given here.

Assay: growth inhibition of yeast carrying parasite Hsp90, dose response, anti-malarial Hsp90 inhibitor project, ATP luminescence, 48 h, cherry-picked samples (AID 540268);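 on activity change, negative = inhibition: 0% = neutral control wells and -100% = positive control wells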
Conditions: yeast expressing the parasite Hsp90, ATP luminescence; for activity change, negative = inhibition: at 26 µM (top of the series)

| SMILES | AC50 | activity change, negative = inhibition |
| --- | --- | --- |
| COc1cc(N(C)C)ccc1C=c1c2ccccc2n2c1cc(-c1ccccc1)[n+]2C | 7.55 µM |  |
| COc1ccccc1N=Nc1ccc(O)c2ncccc12 | 4.31 µM |  |
| O=C(/C=C/c1ccccc1)CCN1CCCCC1 | 4.02 µM |  |
| O=C(Nc1nc(-c2ccccn2)cs1)c1cc2ccccc2o1 | 4.24 µM |  |
| COc1ccc2c(c1)OC[C@H]1[C@H]2N2C(=O)c3cc(C)ccc3NC(=O)[C@@]2(C)[C@H]1c1ccccc1 | 0.988 µM |  |
| Cc1cc(C)c2c(N=NN3CCOCC3)[nH]nc2n1 | 7.65 µM |  |
| O=[N+]([O-])c1ccc(C=Nc2ccc(Cl)c([N+](=O)[O-])c2)s1 | 2.13 µM |  |
| CC(Oc1ccc(Cl)cc1)C(=O)NNC(=S)NC(=O)c1ccco1 (configuration not stated) | 1.94 µM |  |
| O=C(Nc1ccccc1N1CCOCC1)c1ccc([N+](=O)[O-])s1 | 8.44 µM |  |
| Cc1ccc(OCc2n[nH]c(=S)n2C2CCCCC2)cc1 | 23.6 µM |  |
| C=C(C)COc1ccc(-c2[nH]ncc2Oc2cccc(OC)c2)c(O)c1 | 8.1 µM |  |
| O=C(N/N=C/c1ccccn1)c1cc(-c2ccc(Br)cc2)nc2ccccc12 | 5.33 µM |  |
| O=C(Nc1nc(-c2ccccn2)cs1)c1ccc(-c2ccccc2F)o1 | 8.88 µM |  |
| O=C(c1ccc(Br)cc1)C(CN1CCOCC1)c1ccccc1 (configuration not stated) | 2.91 µM |  |
| CCCCCCCCCCCCCCCC[N+](C)(C)CC | 4.04 µM |  |
| COc1cccc2c1C(=O)c1c(O)c3c(c(O)c1C2=O)CC(O)(C(=O)CO)CC3OC1CC(N(C)C)C(O)C(C)O1 (configuration not stated) | 1.09 µM |  |
| CN(c1ccccc1)c1ccc(/C=C/[N+](=O)[O-])cc1 | 5.24 µM |  |
| COc1ccccc1-c1sc2ccccc2c1-c1ccc(O)cc1 | 3.78 µM |  |
| Nc1c(C(=O)Nc2ccc3c(c2)OCCO3)nnn1Cc1ccccc1Cl | 5.48 µM |  |
| O=[N+]([O-])c1ccc(N=Nc2c(Cl)cc(O)cc2Cl)cc1 | 0.401 µM |  |
| O=C1NC(=S)S/C1=C\C=C\c1ccc([N+](=O)[O-])o1 | 2.45 µM |  |

| SMILES | AC50 | activity change, negative = inhibition |
| --- | --- | --- |
| O=S(=O)(NC1CCCCCC1)c1ccc(Br)s1 | 3.13 µM |  |
| O=C1/C(=C\c2ccc(Cl)c(Cl)c2)CN(C(=O)CCN2CCOCC2)C/C1=C/c1ccc(Cl)c(Cl)c1 | 3.5 µM |  |
| COc1ccc2c(c1)C=C(C(=O)NCc1ccc(Cl)cc1)CO2 | 4.21 µM |  |
| CN(C)/C=C/C(=O)c1ccc(Oc2ccccc2)cc1 | 3.92 µM |  |
| Cc1cccnc1Nc1nc(-c2ccccn2)cs1 | 4.32 µM |  |
| CCCCCCCCCCCCCCCC[n+]1cccc(C(=O)N(CC)CC)c1 | 2.89 µM and 8.12 µM |  |
| S=C1Cc2ccccc2N1 | 3.36 µM |  |
| O=C1C(=C(I)I)c2ccccc2-c2ccccc21 |  | 26.6% (inactive) |
| CC(C)Cn1c(=O)c(C(=O)Nc2ccncc2)c(O)c2ccccc21 | 8.25 µM |  |
| CN(C)/C=C/C(=O)c1ccc2noc(-c3cccc(F)c3)c2c1 | 13.5 µM |  |
| CC1=NN(c2nc3ccccc3[nH]2)C(=O)/C1=C/N(C)C | 2.23 µM |  |
| O=C1CC(c2ccccc2)CC(O)=C1C=Nc1cccc(Cl)c1 (configuration not stated) | 3.26 µM |  |
| O=C1CC(N2CCC(c3nc4ccccc4o3)CC2)C(=O)N1c1ccc(Cl)c(C(F)(F)F)c1 (configuration not stated) | 4.08 µM |  |
| OC(Cn1cncn1)(c1ccccc1)c1ccccc1 | 1.57 µM |  |
| CCN(CC)S(=O)(=O)c1cccc(C(=O)NCC(c2ccccc2)N(C)C)c1 (configuration not stated) | 3.92 µM |  |
| COc1ccc(OC)c(NC(=O)Nc2ccc(O)c3ccccc23)c1 | < 0.195 µM |  |
| CCCCCCCCCCCCCCCC(O)C[N+](C)(C)CCO (configuration not stated) | 6.61 µM |  |
| Cc1ccccc1CS(=O)(=O)c1ncc(Cl)c(C(=O)Nc2ccc(F)cc2)n1 | 4.06 µM |  |
| Cc1ccc2c(c1C)-c1c(ccc(C)c1C)C(=O)C2=O | 2.67 µM |  |
| CCC(=O)NC(c1ccc(Cl)cc1Cl)c1ccc2cccnc2c1O (configuration not stated) | 3.96 µM |  |
| O=C(/C(=C/c1ccc(Cl)cc1)c1nc2ccccc2[nH]1)c1ccccc1 | 7.04 µM |  |

| SMILES | AC50 | activity change, negative = inhibition |
| --- | --- | --- |
| O=C1C=CC(=O)N1c1ccc(Nc2ccccc2)cc1 | < 0.195 µM |  |
| COc1ccc(N=Cc2cc(Cc3ccccc3Cl)cc([N+](=O)[O-])c2O)cc1OC | 1.5 µM |  |
| O=C(Nc1nc(-c2ccccn2)cs1)C1COc2ccccc2O1 (configuration not stated) | 8.85 µM |  |
| O=C(Nc1ccccc1Cl)/C(Cl)=C(\Cl)S(=O)c1ccccc1 (configuration not stated) | 0.718 µM |  |
| O=C(Oc1c(Cl)cc(Cl)c2cccnc12)c1ccco1 | 0.696 µM |  |
| COc1cccc(N=Nc2ccc3cccnc3c2O)c1 | 2.39 µM |  |
| COc1ccc(C(=O)COC(=O)c2cc([N+](=O)[O-])ccc2N2CCOCC2)c(OC)c1 | 13.8 µM |  |
| COc1ccccc1C(=O)Nc1nc2ccccc2[nH]1 | 1.22 µM |  |
| CCOC(=O)C(=Cc1ccc(-n2cncn2)cc1)C(=O)OCC | 6.51 µM |  |
| O=[N+]([O-])c1cc(Cl)c(O)c2ncccc12 | 1.81 µM |  |
| CCCCCCCCCCCCCCCC[n+]1ccccc1 | 4.03 µM and 3.43 µM |  |
| Cc1cccc(C)c1NC(=O)COC(=O)c1ccc([N+](=O)[O-])o1 |  | -33.6% (inactive) |
| COc1ccc2c(c1)[C@H]1[C@H](CO2)[C@H](c2ccccc2)[C@]2(C)C(=O)Nc3ccc(Cl)cc3C(=O)N12 | 1.8 µM |  |
| COc1ccc(OC)c(NC(=O)c2nc(S(=O)(=O)Cc3ccccc3)ncc2Cl)c1 | 4.3 µM |  |
| CN1CCc2nc3sc(C(=O)C45CC6CC(CC(C6)C4)C5)c(N)c3cc2C1 | 0.502 µM |  |
| Cc1ccc(S(=O)(=O)Nc2cc(Cl)c(O)c3ncccc23)cc1 | 2.09 µM |  |
| CCCCCCCCCCOC(=O)Cn1c(COc2ccc(OC)cc2)[n+](C)c2ccccc21 | 24.4 µM |  |
| CCN(CC)c1ccc(C(=C2C=CC(=[N+](CC)CC)C=C2)c2ccccc2)cc1 | 1.09 µM |  |
| COC[C@H]1OC(=O)c2coc3c2[C@@]1(C)C1=C(C3=O)[C@@H]2CCC(=O)[C@@]2(C)C[C@H]1OC(C)=O | 0.215 µM |  |
| CNc1ccc2oc(C[C@H]3O[C@@]4(CC[C@H]3C)O[C@H]([C@H](C)C(=O)c3ccc[nH]3)[C@H](C)C[C@H]4C)nc2c1C(=O)O | 0.813 µM |  |
| CSc1nc2ccc(S(=O)(=O)NC3CCCCC3)cc2s1 | 2.92 µM |  |

| SMILES | AC50 | activity change, negative = inhibition |
| --- | --- | --- |
| COc1ccc(NC(=O)/C(Cl)=C(/Cl)S(=O)Cc2ccccc2)cn1 (configuration not stated) | 2.54 µM |  |
| CCCc1ccc(Oc2cn[nH]c2-c2ccc(O)c(C)c2O)cc1 | 0.408 µM |  |
| Cc1ccc(O)c(NC(=S)NC(=O)c2ccc(-c3ccc(Cl)cc3)o2)c1 | 14.7 µM |  |
| O=S1(=O)Nc2c(ccc3cccnc23)-c2ccccc21 | 0.894 µM |  |
| Oc1ccccc1-c1nc(NC2CCCC2)c2ccccc2n1 | 4.26 µM |  |
| O=C(C1CCN(C2CC(=O)N(c3cccc(Cl)c3)C2=O)CC1)N1CCCC1 (configuration not stated) | 3.94 µM |  |
| CCOC(=O)C1=Nc2ccccc2C1=[N+]=[N-] | 0.532 µM |  |
| Cc1ccc(-n2nnnc2C(Cl)c2nnnn2-c2ccc(C)cc2)cc1 | 0.903 µM |  |
| Cc1cccc(N2C(=O)/C(=C\c3ccc(OC(F)F)cc3)c3ccccc3C2=O)c1 | 4.64 µM |  |
| Cc1cccc(Nc2nc(N)c([N+](=O)[O-])c(N3CCCC(C)C3)n2)c1 (configuration not stated) | 2.03 µM |  |
| COc1ccc(NC(=O)c2sc3ncnc(N4CCN(c5ccccn5)CC4)c3c2C)cc1Cl | 3.46 µM |  |
| Cc1cc(-c2cc(-c3ccc(Cl)cc3)nc(N)c2C#N)co1 | 5.34 µM |  |
| CC(C)(C)C(=O)C(Cl)C(=O)Nc1ccccc1 (configuration not stated) | 1.06 µM |  |
| CC(C)(C)c1nn(-c2ccccc2)c2[nH]c(=O)c(C=O)cc12 | 1.31 µM |  |
| Oc1c(C(c2ccccc2Cl)N2CCCC2)ccc2cccnc12 (configuration not stated) | 3.51 µM |  |
| CC(=O)NC(c1ccc(Cl)cc1)c1ccc2cccnc2c1O (configuration not stated) | 2.58 µM |  |
| O=C(NCCCCc1ccccc1)c1ccc(Br)cc1 | 4.42 µM |  |
| CC(=NNC(=S)N1CC2CCC(CC2)C1)c1cnccn1 | < 0.195 µM |  |
| Cc1c(C(=O)N(Cc2ccccc2)Cc2cccs2)cnn1-c1ccc(Cl)cc1 | 5.05 µM |  |
